Laboratory results: US10285988B2, “Compounds for treatment of fibrosis diseases” (CUREGENIX, INC., priority 2013, dated 2019)

System: WNT pathway
Assay: WNT pathway reporter gene assay (NIH3T3 TCF-Luc cells co-cultured with 293 WNT3a cells)
Format: cell-based
Details: Mus musculus, co-culture 16 hours, luciferase luminescence reduced by 50%
Procedure: Materials and Methods: NIH3T3 mouse fibroblast cells (American Type Culture Collection, Manassas, Va.) were transfected with a plasmid containing a luciferase gene driven by 5 copies of TCF elements. Stale cells selected with 1 μg/mL of Zeocin (Gibco/Invitrogen, Carlsbad, Calif.) are cultured in Dulbecco's modified Eagle's medium (Invitrogen, Carlsbad, Calif.) supplemented with 10% FBS (Invitrogen), 50 unit/mL penicillin and 50 μg/mL of streptomycin (Invitrogen) at 37° C. with 5% CO2 in air atmosphere.
After 16 hours, the firefly luciferase activities are measured with the Steady-Glo™ Luciferase Assay System (Promega). The cells were treated with different concentrations of compounds of this invention during the co-culture. […] To normalize for cell quantity and viability, CellTiter Glo assay is next performed in a duplicate plate.

IC50, < 3 nM:
Cc1cc(-c2ccc(CNc3nccc4cc(-c5ccnc(C)c5)ncc34)cc2)ccn1 [Compound 1, N-(4-(2-methylpyridin-4-yl)benzyl)-6-(2-methylpyridin-4-yl)-2,7-naphthyridin-1-amine]
Cc1cc(-c2cc3ccnc(NCc4ccc(-c5ccnc(C)c5)c(C)c4)c3cn2)ccn1 [Compound 2, N-(3-methyl-4-(2-methylpyridin-4-yl)benzyl)-6-(2-methylpyridin-4-yl)-2,7-naphthyridin-1-amine]
Cc1cc(-c2cc3ccnc(NCc4ccc(-c5ccnc(F)c5)c(F)c4)c3cn2)ccn1 [Compound 28]
Cc1cc(-c2ncc(CNc3nccc4cc(-c5cnccn5)ccc34)cc2C)ccn1 [Compound 70]
Cc1cc(-c2ccc(CNc3nccc4cc(-c5cnccn5)ncc34)cc2)ccn1 [Compound 35]
